The target of the assay is T1, full length SGK1 (Homo sapiens, UniProt O00141).
T1 construct: 125 μM full length SGK1 (Life Technologies Part #PR7358A); purchased Life Technologies PR7358A
T1 sequence (O00141 1-431): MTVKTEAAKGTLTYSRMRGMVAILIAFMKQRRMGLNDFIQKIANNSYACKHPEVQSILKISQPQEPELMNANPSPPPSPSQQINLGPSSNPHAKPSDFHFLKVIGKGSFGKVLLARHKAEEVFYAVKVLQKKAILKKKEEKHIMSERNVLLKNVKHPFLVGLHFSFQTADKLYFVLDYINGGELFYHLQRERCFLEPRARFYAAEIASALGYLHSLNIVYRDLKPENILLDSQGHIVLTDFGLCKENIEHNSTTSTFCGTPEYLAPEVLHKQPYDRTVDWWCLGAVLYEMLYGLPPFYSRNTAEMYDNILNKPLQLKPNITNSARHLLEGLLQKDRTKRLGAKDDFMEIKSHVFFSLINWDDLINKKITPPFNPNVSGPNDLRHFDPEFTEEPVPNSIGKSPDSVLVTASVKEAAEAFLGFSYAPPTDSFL
The experiment in a line: SGK1 inhibition Assay A (Caliper LabChip electrophoretic separation of fluorescent peptide substrate and phosphorylated product). The format is biochemical. Particulars: Assay A; 20 μM ATP, 40 min incubation; read-out: SGK1 IC50.

In general, pIC50 refers to −log10 of the IC50, conventionally taken in molar units.

SMILES strings stand for the structures. pIC50: −log10 of the molar value.

Take `Nc1ncnn2c(-c3ccc(NS(=O)(=O)c4cc(Cl)ccc4F)cc3)cc(N3CCC[C@@H](NC(=O)c4ccc(Cl)s4)C3)c12` [Example 346, (R)—N-(1-(4-amino-7-(4-((5-chloro-2-fluorophenyl)sulfonamido)phenyl)pyrrolo[2,1-f][1,2,4]triazin-5-yl)piperidin-3-yl)-5-chlorothiophene-2-carboxamide]: the pIC50 was 7.10.

With `CC(=O)N1CC=C(c2cc(N3CCC[C@@H](NC(=O)c4sc(C(F)F)cc4OC4CCNCC4)C3)c3c(N)ncnn23)C1` [Example 347, (R)—N-(1-(7-(1-acetyl-2,5-dihydro-1H-pyrrol-3-yl)-4-aminopyrrolo[2,1-f][1,2,4]triazin-5-yl)piperidin-3-yl)-5-(difluoromethyl)-3-(piperidin-4-yloxy)thiophene-2-carboxamide], the pIC50 was 8.05.

As for `COC(=O)N1CC=C(c2cc(N3CCC[C@@H](NC(=O)c4sc(C(F)F)cc4OC4CCNCC4)C3)c3c(N)ncnn23)C1` [Example 348, methyl (R)-3-(4-amino-5-(3-(5-(difluoromethyl)-3-(piperidin-4-yloxy)thiophene-2-carboxamido)piperidin-1-yl)pyrrolo[2,1-f][1,2,4]triazin-7-yl)-2,5-dihydro-1H-pyrrole-1-carboxylate], the pIC50 is 8.22.

On to `NC(=O)c1ccc(-c2cc(N3CCC[C@@H](NC(=O)c4sc(C(F)F)cc4OC4CCNCC4)C3)c3c(N)ncnn23)cc1F` [Example 349, (R)-N-(1-(4-amino-7-(4-carbamoyl-3-fluorophenyl)pyrrolo[2,1-f][1,2,4]triazin-5-yl)piperidin-3-yl)-5-(difluoromethyl)-3-(piperidin-4-yloxy)thiophene-2-carboxamide], for which the pIC50 was 8.70.

On to `CC(=O)N1CC=C(c2cc(N3CCC[C@@H](NC(=O)c4sc(C(F)F)cc4OCC4CCNCC4)C3)c3c(N)ncnn23)C1` [Example 350, (R)—N-(1-(7-(1-acetyl-2,5-dihydro-1H-pyrrol-3-yl)-4-aminopyrrolo[2,1-f][1,2,4]triazin-5-yl)piperidin-3-yl)-5-(difluoromethyl)-3-(piperidin-4-ylmethoxy)thiophene-2-carboxamide], for which the pIC50 is 7.89.

Regarding `COC(=O)N1CC=C(c2cc(N3CCC[C@@H](NC(=O)c4sc(C(F)F)cc4OCC4CCNCC4)C3)c3c(N)ncnn23)C1` [Example 351, methyl (R)-3-(4-amino-5-(3-(5-(difluoromethyl)-3-(piperidin-4-yl-methoxy)thiophene-2-carboxamido)piperidin-1-yl)pyrrolo[2,1-f][1,2,4]triazin-7-yl)-2,5-dihydro-1H-pyrrole-1-carboxylate], the pIC50 is 8.10.

Turning to `CC(=O)N1CC=C(c2cc(N3CCC[C@@H](NC(=O)c4sc(C)nc4OCCN(C)C)C3)c3c(N)ncnn23)C1` [Example 352, (R)—N-(1-(7-(1-acetyl-2,5-dihydro-1H-pyrrol-3-yl)-4-aminopyrrolo[2,1-f][1,2,4]triazin-5-yl)piperidin-3-yl)-4-(2-(dimethylamino)ethoxy)-2-methylthiazole-5-carboxamide], the pIC50 was 7.85.

With `COC(=O)N1CC=C(c2cc(N3CCC[C@@H](NC(=O)c4sc(C)nc4OCCN(C)C)C3)c3c(N)ncnn23)C1` [Example 353, Methyl (R)-3-(4-amino-5-(3-(4-(2-(dimethylamino)ethoxy)-2-methylthiazole-5-carboxamido)piperidin-1-yl)pyrrolo[2,1-f][1,2,4]triazin-7-yl)-2,5-dihydro-1H-pyrrole-1-carboxylate], the pIC50 is 7.80.

With `Cc1nc(OCCN(C)C)c(C(=O)N[C@@H]2CCCN(c3cc(-c4ccc(C#N)nc4)n4ncnc(N)c34)C2)s1` [Example 354, (R)-N-(1-(4-amino-7-(6-cyanopyridin-3-yl)pyrrolo[2,1-f][1,2,4]triazin-5-yl)piperidin-3-yl)-4-(2-(dimethylamino)ethoxy)-2-methylthiazole-5-carboxamide], the pIC50 is 8.22.

Take `Cc1nc(OCCN(C)C)c(C(=O)N[C@@H]2CCCN(c3cc(-c4ccc(=O)n(CC(C)C)c4)n4ncnc(N)c34)C2)s1` [Example 355, (R)-N-(1-(4-amino-7-(1-isobutyl-6-oxo-1,6-dihydropyridin-3-yl)pyrrolo[2,1-f][1,2,4]triazin-5-yl)piperidin-3-yl)-4-(2-(dimethylamino)ethoxy)-2-methylthiazole-5-carboxamide]: the pIC50 was 7.33.

As for `Cc1nc(OCCN(C)C)c(C(=O)N[C@@H]2CCCN(c3cc(-c4ccnc(C#N)c4)n4ncnc(N)c34)C2)s1` [Example 356, (R)-N-(1-(4-amino-7-(2-cyanopyridin-4-yl)pyrrolo[2,1-f][1,2,4]triazin-5-yl)piperidin-3-yl)-4-(2-(dimethylamino)ethoxy)-2-methylthiazole-5-carboxamide], the pIC50 was 7.89.

As for `CC(=O)N1CC=C(c2cc(N3CCC[C@@H](NC(=O)c4sc(C)nc4OC4CCN(C)CC4)C3)c3c(N)ncnn23)C1` [Example 357, (R)—N-(1-(7-(1-acetyl-2,5-dihydro-1H-pyrrol-3-yl)-4-aminopyrrolo[2,1-f][1,2,4]triazin-5-yl)piperidin-3-yl)-2-methyl-4-((1-methylpiperidin-4-yl)oxy)thiazole-5-carboxamide], the pIC50 was 7.62.

As to `CC(=O)N1CC=C(c2cc(N3CCC[C@@H](NC(=O)c4sc(C)nc4OC4CCNCC4)C3)c3c(N)ncnn23)C1` [Example 357E, (R)—N-(1-(7-(1-acetyl-2,5-dihydro-1H-pyrrol-3-yl)-4-aminopyrrolo[2,1-f][1,2,4]triazin-5-yl)piperidin-3-yl)-2-methyl-4-(piperidin-4-yloxy)thiazole-5-carboxamide], the pIC50 is 7.72.

Turning to `CC(=O)N1CC=C(c2cc(N3CCC[C@@H](NC(=O)c4sc(C)nc4OC4CCN(C(C)C)CC4)C3)c3c(N)ncnn23)C1` [Example 358, (R)-N-(1-(7-(1-acetyl-2,5-dihydro-1H-pyrrol-3-yl)-4-aminopyrrolo[2,1-f][1,2,4]triazin-5-yl)piperidin-3-yl)-4-((1-isopropylpiperidin-4-yl)oxy)-2-methylthiazole-5-carboxamide], the pIC50 was 7.54.

Consider `Cc1nc(OC2CCN(C)CC2)c(C(=O)N[C@@H]2CCCN(c3cc(-c4ccc(C#N)nc4)n4ncnc(N)c34)C2)s1` [Example 362, (R)-N-(1-(4-amino-7-(6-cyanopyridin-3-yl)pyrrolo[2,1-f][1,2,4]triazin-5-yl)piperidin-3-yl)-2-methyl-4-((1-methylpiperidin-4-yl)oxy)thiazole-5-carboxamide], for which the negative-log IC50 (pIC50) was 7.72.

On to `Cc1nc(OC2CCN(C(C)C)CC2)c(C(=O)N[C@@H]2CCCN(c3cc(-c4ccc(C#N)nc4)n4ncnc(N)c34)C2)s1` [Example 363, (R)-N-(1-(4-amino-7-(6-cyanopyridin-3-yl)pyrrolo[2,1-f][1,2,4]triazin-5-yl)piperidin-3-yl)-4-((1-isopropylpiperidin-4-yl)oxy)-2-methylthiazole-5-carboxamide], for which the pIC50 was 8.15.

Take `CC(=O)N1CC=C(c2cc(N3CCC[C@@H](NC(=O)c4[nH]c5ccccc5c4OCCN(C)C)C3)c3c(N)ncnn23)C1` [Example 364, (R)—N-(1-(7-(1-acetyl-2,5-dihydro-1H-pyrrol-3-yl)-4-aminopyrrolo[2,1-f][1,2,4]triazin-5-yl)piperidin-3-yl)-3-(2-(dimethylamino)ethoxy)-1H-indole-2-carboxamide]: the pIC50 is 7.92.

Take `COC(=O)N1CC=C(c2cc(N3CCC[C@@H](NC(=O)c4[nH]c5ccccc5c4OCCN(C)C)C3)c3c(N)ncnn23)C1` [Example 365, Methyl (R)-3-(4-amino-5-(3-(3-(2-(dimethylamino)ethoxy)-1H-indole-2-carboxamido)piperidin-1-yl)pyrrolo [2,1-f][1,2,4]triazin-7-yl)-2,5-dihydro-1H-pyrrole-1-carboxylate]: the negative-log IC50 (pIC50) was 7.68.

Take `CN(C)CCOc1c(C(=O)N[C@@H]2CCCN(c3cc(-c4ccnc(C#N)c4)n4ncnc(N)c34)C2)[nH]c2ccccc12` [Example 366, (R)-N-(1-(4-amino-7-(2-cyanopyridin-4-yl)pyrrolo[2,1-f][1,2,4]triazin-5-yl)piperidin-3-yl)-3-(2-(dimethylamino)ethoxy)-1H-indole-2-carboxamide]: the pIC50 was 7.49.

As for `CN(C)CCOc1c(C(=O)N[C@@H]2CCCN(c3cc(-c4ccc(C#N)nc4)n4ncnc(N)c34)C2)[nH]c2ccccc12` [Example 367, (R)-N-(1-(4-amino-7-(6-cyanopyridin-3-yl)pyrrolo[2,1-f][1,2,4]triazin-5-yl)piperidin-3-yl)-3-(2-(dimethylamino)ethoxy)-1H-indole-2-carboxamide], the pIC50 was 7.39.

For `CN(C)CCOc1c(C(=O)N[C@@H]2CCCN(c3cc(-c4ccc(C#N)c(F)c4)n4ncnc(N)c34)C2)[nH]c2ccccc12` [Example 368, (R)-N-(1-(4-amino-7-(4-cyano-3-fluorophenyl)pyrrolo[2,1-f][1,2,4]triazin-5-yl)piperidin-3-yl)-3-(2-(dimethylamino)ethoxy)-1H-indole-2-carboxamide], the pIC50 is 7.44.

For `CC(C)Cn1cc(-c2cc(N3CCC[C@@H](NC(=O)c4[nH]c5ccccc5c4OCCN(C)C)C3)c3c(N)ncnn23)ccc1=O` [Example 369, (R)-N-(1-(4-amino-7-(1-isobutyl-6-oxo-1,6-dihydropyridin-3-yl)pyrrolo[2,1-f][1,2,4]triazin-5-yl)piperidin-3-yl)-3-(2-(dimethylamino)ethoxy)-1H-indole-2-carboxamide], the pIC50 is 6.71.

The record behind these values is patent publication US20260250290A1 (BRISTOL-MYERS SQUIBB COMPANY, priority 2023, published 2026).
